We go through three molecules from patent publication US20130310374A1, “Substituted Imidazoquinoline Derivatives” (PIRAMAL ENTERPRISES LIMITED`, priority 2010, published 2013).

The subject of one test is arthritic DBA/1 J mice. Description: Collagen-induced arthritis. The class given is in vivo, mouse. To be noted: 1 mg/kg, p.o., twice daily. Here is the method: Protocol for Collagen-Induced Arthritis
Induction of Collagen-Induced Arthritis and Treatment with Compound of Example 19
All animal experiments were carried out in accordance with the guidelines of Committee for the Purpose of Control and Supervision of Experiments on Animals (CPCSEA). All animal experiments were approved by Institutional Animal Ethics Committee (IAEC) of Piramal Life Sciences Limited, Mumbai, India. Collagen-induced arthritis was induced in DBA/1 J mice as described in J. Exp. Med., 1985, 162, 637-46. Inbred male DBA/1 J mice (8-10 weeks of age, Jackson Laboratories, Bar Harbor, Me.) were immunized intradermally at the base of the tail with 200 μg type II collagen emulsified in Freund's Complete Adjuvant (FCA) on day 0. On day 17, immunized mice were randomized into different groups based on their body weight. From day 17 onwards, (i) one group of mice started receiving administration of compound of Example 19 (1 mg/kg, p.o., twice daily), (ii) a second group of mice started receiving administration of vehicle (0.5% CMC, p.o., twice daily), and (iii) a third group of mice started receiving administration of Enbrel (3 mg/kg, s.c., once daily). On day 21, all mice were boosted with 200 μg type II collagen emulsified in FCA. The mice (8 per treatment group) were monitored daily (from day 17 onwards) for the development and severity of arthritis using articular index and paw thickness as parameters. Articular index scoring was performed employing the following criteria—Fore limbs (Scale 0-3): 0, no redness or swelling; 1, redness but no swelling; 2, redness and swelling of the paw; 3, redness and severe swelling of the paw. […] Swelling of each of the paws of mice was measured with constant-tension, spring-loaded calipers (Mitutoyo, Aurora, Ill.). […]
Treatment continued daily until day 36 of the study, and the body weight of the animal along with the severity of inflammation for all 4 paws was monitored daily. […]

The target in another test is T1, ALK2 (ACVR1) (Homo sapiens, UniProt Q04771).
T1 construct: recombinant human, catalytic domain of ALK1 (ACVRL1) or ALK2 (ACVR1) kinase GST fusion proteins; GST; purchased Invitrogen, USA
T1 sequence (Q04771 208-502 limits assumed): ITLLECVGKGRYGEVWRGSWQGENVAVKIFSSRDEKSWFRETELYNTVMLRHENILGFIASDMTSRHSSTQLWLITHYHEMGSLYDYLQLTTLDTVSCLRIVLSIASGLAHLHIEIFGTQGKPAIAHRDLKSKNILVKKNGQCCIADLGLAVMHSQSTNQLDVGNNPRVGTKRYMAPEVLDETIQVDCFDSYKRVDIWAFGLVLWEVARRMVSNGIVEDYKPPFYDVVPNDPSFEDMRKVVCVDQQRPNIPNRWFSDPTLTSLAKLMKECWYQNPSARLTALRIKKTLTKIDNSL
Put plainly: ALK2 inhibition assay (TR-FRET). In kind it is biochemical. To be noted: 20 μM ATP, read-out: IC50 for ALK-2. Here is the method: Protocol for ALK1 and ALK2 Inhibition Assay
The in vitro kinase assays using recombinant human, catalytic domain of ALK1 (ACVRL1) or ALK2 (ACVR1) kinase GST fusion proteins (Invitrogen, USA) were conducted using a time-resolved fluorescence (TR-FRET) format. Kinase reactions were carried out in a 384-well plate format in a final volume of 20 μl. The standard enzyme reaction buffer consisted of 50 mM Tris HCL (pH: 7.4), 1 mM EGTA, 10 mM MgCl2, 2 mM DTT, 0.01% Tween-20, 20 nM of ALK1/ALK2 kinase enzyme (Invitrogen, USA), 50 nM of peptide substrate (DNA Topoisomerase 2 alpha (Thr 1342)U1 peptide, Perkin Elmer, USA) and 20 μM of ATP. Various concentrations of compound of Example 3a in DMSO (final concentration 2%), was added to give a final concentration of the compound ranging from 20 μM to 20 pM. [20 nM of enzyme and compound in various concentrations were pre incubated for 10 minutes at 23° C. followed by the addition of 50 nM of the peptide substrate]. Reaction was initiated with the addition of 20 μM of ATP. After incubation for 1 hour at 23° C., kinase reaction was stopped with the addition of 5 μl EDTA (final concentration of 10 mM in 20 μl). […] The IC50 values for compound of Example 3a were determined by a four-parameter sigmoidal curve fit (Sigma plot or Graph pad).
On the technique in general: TR-FRET usually uses a lanthanide donor and a delayed reading to cut background.

The subject of a further test is KCL22. Put plainly: Cytotoxicity propidium iodide assay, KCL22. To be noted: Homo sapiens, KCL-22; KCL22 (CML), 48 hours treatment; read-out: IC50 Values in μM, C6f. The class given is cell-based. Here is the method: The assay was designed as in the reference, Anticancer Drugs, 2002, 13, 1-8, the disclosure of which is incorporated herein by reference for the teaching of the assay.
Cells from cell lines (ATCC) as mentioned in the table given below were seeded at a density of 3000 cells/well in a white opaque 96-well plate. Following incubation at 37° C./5% CO2 for a period of 18-24 hours, the cells were treated with various concentrations (stock solution was prepared in DMSO and subsequent dilutions were made in media as per ATCC guidelines) of the compounds of the present invention for a period of 48 hours. At the end of treatment, the culture medium was discarded, the cells were washed with 1×PBS and 200 μL of […] propidium iodide was added to each well. […] For analysis, the plates were warmed to RT, allowed to thaw and were read in PoleStar fluorimeter with the fluorescence setting. The percentage of viable cells in the non-treated set of wells was considered to be 100 and the percentage viability following treatment was calculated accordingly. IC50 values were calculated from graphs plotted using these percentages. IC50 values for certain compounds of present invention are depicted in Table 1 and % Inhibition of certain compounds of present invention are depicted in Table 2.

Turning to `COc1ccc(-n2c(=O)n(C)c3cnc4ccc(-c5cnc(N)c(C(F)(F)F)c5)cc4c32)cn1` [Example 19, 8-(6-Amino-5-(trifluoromethyl)pyridin-3-yl)-1-(6-methoxypyridin-3-yl)-3-methyl-1H-imidazo[4,5-c]quinolin-2(3H)-one], in the test on arthritic DBA/1 J mice (day 17 to day 36), the “Bone erosion and joint space narrowing” value is “distinctly protects against bone erosion and joint space narrowing”; the “Joint destruction, hyperproliferative pannus formation and infiltration of inflammatory cells” value is “prominently diminishes joint destruction, hyperproliferative pannus formation and infiltration of inflammatory cells”. In addition, the “Disease-associated increase in articular index and paw thickness” value in the test on arthritic DBA/1 J mice (day 17 to day 36, FIGS. 4a and 4b) was “inhibits disease-associated increase in articular index and paw thickness”. With `CS(=O)(=O)O.Cn1c(=O)n(-c2ccc(C(C)(C)C#N)nc2)c2c3cc(-c4cnc(N)c(C(F)(F)F)c4)ccc3ncc21` [Example 3a, 8-(6-Amino-5-(trifluoromethyl)pyridin-3-yl)-1-(6-(2-cyanopropan-2-yl)pyridin-3-yl)-3-methyl-2-oxo-2,3-dihydro-1H-imidazo[4,5-c]quinolin-5-ium methanesulfonate], the half-inhibitory concentration (IC50) on ALK2 (ACVR1) is 47 nM. With `Cn1c(=O)n(-c2ccc(C(C)(C)C#N)nc2)c2c3cc(-c4cnc(N)c(C(F)(F)F)c4)ccc3ncc21` [Example 3, 2-(5-(8-(6-Amino-5-(trifluoromethyl)pyridin-3-yl)-3-methyl-2-oxo-2,3-dihydro-1H-imidazo[4,5-c]quinolin-1-yl)pyridin-2-yl)-2-methylpropanenitrile], the IC50 in the test on KCL22 was 2 µM.

What is called IC50 is the midpoint of a concentration-inhibition curve.
